From patent publication US10584127B2, “3,3-difluoropiperidine carbamate heterocyclic compounds as NR2B NMDA receptor antagonists” (Rugen Holdings (Cayman) Limited, priority 2015, dated 2020)

Key:
[1] = tested on: KCl-induced cortical spreading depression; assay: Cortical spreading depression (CSD), aura phase of migraine model; assay type: in vivo; settings: rats, mesylate salt
Description: The cortical spreading depression model is utilized to investigate whether treatment with compounds of the present invention affect electrophysiological and hemodynamic events in a rat model of migraine.
Rats were anesthetized with 5% isoflurane (in 70% N2O and 30% O2; flow 300 ml/min) and placed in a stereotactic frame. […] The rectal temperature was maintained at 37.0±1.0° C. with a homeothermic blanket system. The skin was opened by a medial incision and retracted laterally. Three burr holes were drilled under saline cooling over the right hemisphere at the following coordinates (mm from bregma): (1) posterior 4.5, lateral, 2.0 (occipital cortex): KCl application site; (2) posterior 0.5, lateral 2.0 (parietal cortex): LDF recording site; (3) anterior 2, lateral 2 (frontal cortex): DC potential recording site. A laser-Doppler flow probe (Oxyflow, Oxford Optronics, UK) to monitor CBF and an invasive Ag/AgCl electrode for measuring direct current (DC) potential shifts were placed in the parietal and frontal cortex burr holes on the intact dura and in the cortex, respectively. The laser-Doppler flow probe was positioned in an area free of large pial and dural vessels to minimize a large-vessel contribution to the signal. For the DC-potential measurement, a reference electrode was fixed in the neck. Dura overlying the occipital cortex was gently removed and care was taken to avoid bleeding. After surgical preparation, the cortex was allowed to recover for 15 minutes under saline irrigation. A cotton ball (2 mm diameter) soaked with 1M KCl was placed on the pial surface and kept moist by placing 5 μl of KCl solution every 15 minutes. Test compound or vehicle was administered ten (10) minutes prior to CSD initiation. […] The number of KCl-induced CSDs was counted for 2 hours. The CBF and DC-potentials were monitored continuously starting from 5 minutes before KCl exposure.
Test compound E1-1.2 was administered as a mesylate salt (mpk based on molecular weight of the mesylate salt).
The data was collected in Windaq acquisition software (Dataq Instruments, USA) at 20 kHz. The raw data was analyzed in Clampfit program (Axon Instruments, USA). The signals were low pass filtered (cut off range 5-10000 Hz) that CSD episodes in DC and CBF could be confirmed. The following parameters were analyzed: i) the number, duration and amplitude of DC-potentials, and ii) the number and amplitude of CBF events.
Doses were given as milligram per kilogram (mpk). […] Bars represent mean±Standard Error of Mean (SEM), and differences were considered to be statistically significant at the P<0.05 level (n=8, * different from vehicle group). Statistical analysis was performed using StatsDirect statistical software. Differences between groups were analyzed by using 1-way ANOVA and Dunnett's post hoc test.

[2] = tested on: NMDA receptor (all subtypes), native rat brain receptors; assay: [3H] MK-801 radioligand binding assay, rat brain membranes; settings: 2 nM [3H] MK-801, rat brain membranes
Description: This example describes NMDA receptor binding assays using two different radioligands, [^3H] […] An established binding assay using the non-selective NMDA receptor ligand [^3H] […] The binding assay method using the NR2B selective receptor ligand [^3H] […] This assay serves as a selective measure of NR2B receptor binding activity in native rat brain receptors. Briefly, the brains of Male Wistar rats were homogenized (Polytron) before centrifugation at 40,000×g for 15 minutes at 4° C. After 2 washes, the final pellet was homogenized and stored at −80° C. The protein concentration was determined by Bradford assay.
Test compounds were solubilized at 10 mM in DMSO. Then the dilutions were performed with a constant solvent concentration (1% DMSO) in the assay.
After incubation for 4.5 h at room temperature, the assays were filtered on GF/B filters pretreated with 0.3% (v/v) PEI with a Brandel system for [^3H] […] The experiment was performed in duplicate (n=2).

Question: With `Cc1ccc(COC(=O)N2CC[C@H](CNc3nccn4cnnc34)C(F)(F)C2)cc1` [Compound E1-1.2, (+)-R-4-methylbenzyl 4-(([1,2,4]triazolo[4,3-a]pyrazin-8-ylamino)methyl)-3,3-difluoropiperidine-1-carboxylate] as the molecule, how does the “number of CBF events vs vehicle” value ([1]; 10 mg/kg) read?
Answer: decreased

Question: And the “number of DC potentials vs vehicle group” value ([1]; 3 mpk, 10 mpk and 30 mpk)?
Answer: significantly decreased

Question: What about the “magnitude of CBF vs vehicle” value [1] of the same molecule?
Answer: unchanged

Question: What about the “amplitude of DC potentials vs vehicle” value ([1]; various doses) of the same molecule?
Answer: not statistically different

Question: And the “duration of DC potentials vs vehicle” value ([1]; various doses)?
Answer: not statistically different

Question: And the “partial effect on [3H] MK-801 binding” value [2]?
Answer: 40%
